# Experimental data reported in ChEMBL document CHEMBL1157539, “Thousands of chemical starting points for antimalarial lead identification” (Nature, 2010).
# Tested on: Plasmodium falciparum
# Test: GSK_TCMDC: Inhibition of Plasmodium falciparum 3D7 in whole erythrocytes, using parasite LDH activity as an index of growth.
# Format: functional, organism-based
# Details: Plasmodium falciparum, 3D7
row,Compound,XC50
1,CCN1CCC(N(Cc2ccc(-c3ccc(C(F)(F)F)cc3)cc2)C(=O)Cn2c(CCc3cccc(F)c3F)cc(=O)c3cn(C)nc32)CC1,240 nM
2,FC(F)(F)c1ccc2[nH]ccc(=NN=Cc3cccc(Cl)c3)c2c1,825 nM
3,CN(C)CCC1CCN(CCS(=O)(=O)c2cccc(Nc3ccc(-c4ccsc4)cn3)c2)CC1,938 nM
4,CC(C)N(CCOc1ccc2c(c1)N(C(=O)Nc1cc(Br)cc(C(F)(F)F)c1)CC2)C(C)C,108 nM
5,CCc1c(CCNCCCCCCNCCc2ccc3c(c2C)OCO3)ccc2c1OCO2,608 nM
6,Cc1cc(N2CCCC2)nc(Nc2ccc(NC(=O)c3ccc(Br)o3)cc2)n1,623 nM
7,COc1ccc2[nH]c(C(=O)Nc3cccc(-c4ccc(CN(C)C)cc4)c3)cc2c1,908 nM
8,CCOc1ccc(-c2cc3nc(C4CCNCC4)c(C(=O)Nc4ccc(C)cc4Cl)cn3n2)cc1,919 nM
9,CCn1ccc2c(N3CCCS3(=O)=O)cc(C(=O)N[C@@H](Cc3ccccc3)[C@H](O)CNC(C)(C)c3cccc(OC)c3)cc21,41.6 nM
10,COc1ccc2nccc([C@@H](O)CN3CCC(NC(=O)/C=C/c4ccc(Cl)c(C(F)(F)F)c4)CC3)c2c1,290 nM
11,COCn1ccc2c3c(N)nc(N)nc3ccc21,990 nM
12,COc1ccc2cc(C=NNc3nc4ccccc4[nH]3)c(Cl)nc2c1,653 nM
13,Cc1cc(NC(=O)Nc2ccc(Cl)cc2F)c2ccccc2n1,547 nM
14,Oc1cccc(CCNCCCCCCNCCc2ccc(Cl)cc2)c1,774 nM
15,Oc1ccc(Nc2nc(NCc3ccccc3)c3ccccc3n2)cc1,192 nM
16,O=c1c(Br)ccccc1Br,795 nM
17,COc1ccc2ncc(F)c(CCN3CC(O)C(CNCc4ccc(F)cc4)C3)c2n1 (stereo unspecified),821 nM
18,N=C(N)Nc1ccc(OCCCCCOc2ccc(NC(=N)N)cc2)cc1,193 nM
19,CCN(CC)CCOc1ccc(NC(=O)c2oc3ccccc3c2C=Cc2ccccc2)cc1,223 nM
20,COc1ccc2nccc(N3CCC(SCCNS(=O)(=O)c4ccc5c(c4)OCCO5)C3)c2n1 (stereo unspecified),981 nM
21,O=C(Cc1cccs1)NCC(c1ccccc1Cl)c1c[nH]c2ccccc12 (stereo unspecified),1150 nM
22,O=C(N[C@H]1CCN(Cc2ccc(OCCCN3CCCCC3)cc2)C1)c1cc(Cl)cc(Cl)c1,621 nM
23,CSc1ccc(C=CC(=O)NC(=O)c2ccccc2O)cc1,289 nM
24,Cc1cccc2nc(-c3cccc(-c4cccc(NC(=O)c5c[nH]cn5)c4)c3)[nH]c12,258 nM

row,Compound,XC50
1,CC(C)Cn1cc(C2CCN(CCN3CCC(CNC(=O)c4ccc(-c5ccc(C#N)cc5)cc4)CC3)CC2)c2ccccc21,786 nM
2,Cc1cccc2nc(-c3ccc(-c4cccc(C(=O)NCCN5CCCC5)c4)s3)[nH]c12,1140 nM
3,Cc1cc(N2CCCCC2)nc2ccc(NC(=O)c3cc(=O)c4ccccc4o3)cc12,716 nM
4,O=C1OC2(CCN(C(=O)c3ccc(-n4cnnn4)cc3)CC2)CN1Cc1ccc(Cl)c(Cl)c1,715 nM
5,Cc1cccc(NC(=O)c2ccc(C(=O)NC3CCN(CC4CCCCC4)C3)cc2)c1 (stereo unspecified),923 nM
6,CCn1c(-c2nonc2N)nc2c(C#CC(C)(C)O)ncc(OCCNCCc3ccc(OC)cc3)c21,957 nM
7,CS(=O)(=O)N(c1ccc(F)cc1)c1cc(C(=O)N[C@@H](Cc2ccccc2)[C@H](O)CNCc2cccc(C(F)(F)F)c2)cc(N2CCCC2=O)c1,1350 nM
8,O=S(=O)(Nc1ccc(CCN2CCC(N3CCCCC3)CC2)cc1)c1ccc(Cl)cc1,1090 nM
9,CCNc1cc(C(=O)N[C@@H](Cc2ccccc2)[C@H](O)CN[C@H](C)c2ccccc2)cc(N2CCCC2=O)c1,54.3 nM
10,COc1ccc(O)c(C(=O)NCCc2ccc(OC)c(-c3ccc(C(C)(C)C)cc3)c2)c1,1030 nM
11,COc1cc2nc(N3CCC(CNC(=O)/C=C/c4ccccc4F)CC3)nc(N)c2cc1OC,581 nM
12,CC(C)COc1ccc(Cl)cc1Cc1ccc(-c2nc3cc(CCN(C)C)ccc3[nH]2)o1,982 nM
13,CNC(=O)c1ccccc1Nc1nc(Nc2ccc(N3CCOCC3)cc2)ncc1Cl,727 nM
14,COCCn1c(SC(C)C(=O)Nc2cc(C(F)(F)F)ccc2Cl)nc2ccccc2c1=O (stereo unspecified),629 nM
15,FC(F)(F)c1cccc(Nc2nc(-c3ccccc3)nc3ncccc23)c1,802 nM
16,O=[N+]([O-])c1cccc(CNCC2CCN(Cc3ccc(C(F)(F)F)cc3)CC2)c1,245 nM
17,COc1ccc2ncc(F)c(NC(=O)C3CCC(NCc4cc5cc(F)cc(F)c5[nH]4)CC3)c2n1 (stereo unspecified),1090 nM
18,CCOC(=O)NCC(=O)Nc1cccc(-c2cccc(-c3nc4cccc(C)c4[nH]3)c2)c1,740 nM
19,O=C(Nc1cccc(-c2nn3ccccc3c2-c2ccnc(Nc3ccc(C(=O)N4CCOCC4)cc3)n2)c1)c1c(F)cccc1F,383 nM
20,Cc1nc(N)nc(N)c1OCCCCCCOc1ccccc1,235 nM
21,N=C(N)NN=Cc1ccc2ccc3ccccc3c2c1,376 nM
22,CCN(CC1CCN(CC2(O)CCOCC2)CC1)c1cc(C)nc(Nc2ccc(Cl)cc2)n1,406 nM
23,CN1CCN(c2ccc(-c3cc(-c4ccncc4)c(-c4ccc(Cl)c(O)c4)o3)cc2)CC1,737 nM
24,CC(C)C1C(O)=C(c2ccc3ccccc3c2)C(=O)N1Cc1cccc(F)c1 (stereo unspecified),812 nM

row,Compound,XC50
1,OC1CCN(c2cc(-c3ccccn3)nc(-c3ccccn3)n2)CC1,1050 nM
2,CC(C)(C)c1ccc(CN2CCC(CNC(=O)c3cc(-c4cccc(Cl)c4)cs3)C2)cc1 (stereo unspecified),1160 nM
3,N=C(N)Nc1nc(CCCCCCCCc2csc(NC(=N)N)n2)cs1,598 nM
4,CC(C)N(Cc1ccccc1)C(=O)CN1C(=O)COc2ccc(S(=O)(=O)N3CCCCCC3)cc21,253 nM
5,CCOc1c(OC)ccc2c1CCN(CCN1CCC(NC(=O)c3ccc(-c4cccc(C(F)(F)F)c4C(F)(F)F)cc3)CC1)C2,728 nM
6,COc1ccc2ccccc2c1CON1C(=N)N=C(N)NC1(C)C,28.8 nM
7,Cc1ccccc1Cc1cccc(/N=C(\N)Nc2ccc(Cl)cc2)n1,676 nM
8,Cc1ccc(C[C@@H](C)NC[C@H](O)c2cccc(C(F)(F)F)c2)cc1,876 nM
9,Fc1cccc(Nc2nc(NCc3ccc(Cl)c(Cl)c3)nc(Nc3cccc(F)c3)n2)c1,748 nM
10,COCCOc1ccc(C(F)(F)F)cc1NC(=O)Cc1c(F)cccc1Cl,1000 nM
11,Cc1cccc2nc(-c3ccc(-c4cccc(C(=O)NCCc5cn(C)cn5)c4)s3)[nH]c12,877 nM
12,CCc1cccc(OCCCON2C(=N)N=C(N)NC2(C)C)c1,3.2 nM
13,NC(CC1CC(=O)N1CC(=O)O)C(=O)O (stereo unspecified),156 nM
14,CCn1cnc2c(N3CCCC3=O)cc(C(=O)N[C@@H](Cc3ccccc3)[C@H](O)CNC3CCCCC3)cc21,574 nM
15,O=S(=O)(c1c(Cl)cc(Cl)cc1Cl)N1CCCCC(c2ccc(C(F)(F)F)cc2)=N1,95 nM
16,Cc1cccc(CC(=N)NCCCCCCNC(=N)Cc2cccc(C)c2)c1,167 nM
17,Cc1cc(O)c(-c2ccc(S(=O)(=O)c3ccc(Cl)cc3)cc2)c(C)n1,877 nM
18,CCC(=O)N(c1ccccc1)C1CCN(CCCC(NC(=O)Nc2cc(C(F)(F)F)cc(C(F)(F)F)c2)c2ccc(Cl)c(Cl)c2)CC1 (stereo unspecified),672 nM
19,COc1ccc2ncc(Cl)c(NCC3(O)CCC(NCc4ccc5c(n4)NC(=O)CS5)CC3)c2n1 (stereo unspecified),597 nM
20,CC(=O)Nc1ccc(C(=O)Nc2ccc(-c3cccc(-c4nc5ccccc5[nH]4)c3)cc2)cn1,238 nM
21,CCCCCCNC(=O)C1Cc2c([nH]c3cc(Cl)ccc23)C2(CCN(Cc3ccccc3)CC2)N1 (stereo unspecified),903 nM
22,CC[C@H]1CN2CC[C@@H]1C[C@H]2[C@H](O)c1cc(N2CCSCC2)nc2ccc(OC)cc12,199 nM
23,CC1CCN(Cc2ccc(NC(=O)c3cc4ccc5cccnc5c4[nH]3)cc2)CC1,779 nM
